One test concerns MGLL. Nature of the test: Expression of MGLL in rat sebaceous gland (epidermal split) after topical PPARgamma agonist treatment, real-time PCR. The settings on record: female FUZZY rats, topical 1% in acetone, standardized to 18S, versus carrier group. The test is classed as in vivo. The text has this: • Strain: Ico:Hsd:FUZZY-fz • Gender: female • Age: 10 weeks Number per batch: 40 (8 animals per group) Treatment: Route of administration: topical • Compound/batch: PPARgamma agonists: • A: 5-{4-[2-(methylpyridin-2-ylamino)ethoxy]-benzyl}thiazolidine-2,4-dione • B: (2-methoxyethoxymethoxy)naphthalene-2-carboxylic acid [4′-(2,4-dioxothiazolidin-5-ylmethyl)biphenyl-3-ylmethyl]methylamide or rosiglitazone • C: (S)-2-ethoxy-3-{4-[6-(3-heptyl-1-methyl-ureido)pyridin-2-yl)phenyl}propionic acid • Doses: 1% • Carrier: acetone (001) • Duration 96 hours Method of evaluation: The animals are weighed at the beginning and at the end of the study. Skin biopsies are taken (6 samples of skin excised per rat) in order to analyse the expression of the genes (RNA extraction, reverse transcriptase and real-time PCR). The samples are stored overnight at 4° C. before incubation in 1M sodium bromide (NaBr) for 2 hours at 37° C. After incubation, the samples are separated into epidermis or dermis. The epidermal samples are stored at 20° C. […] PCRs are carried out, beginning with the cDNAs originating from the epidermal splits containing sebaceous glands from control rats or rats treated with a PPARγ agonist: the mRNA is extracted using a column and quantified. The quality of the mRNAs is measured and is represented by the 18S/28S ratio. The results are standardized with respect to 18S, expressed as relative induction versus untreated animals (carrier group). The statistical analysis is obtained using internal software based on a modified Monte Carlo statistical analysis.
On the technique in general: Real-time PCR tracks product formation cycle by cycle.

The subject of test [1] is Monoglyceride lipase (MGLL). Nature of the test: Expression of MGLL in Fuzzy rat epidermal split after topical treatment (Affymetrix transcriptome analysis). The test is classed as in vivo. The note with it: female FUZZY rats, topical 1% once a day for 8 days, Affymetrix 1388644_at, control condition 214. Here is the method:
The studies are carried out in female Fuzzy rats (Hsd: Fuzzy-fz) ten weeks old at the beginning of the study. The animals are treated at a dose of 1% (PPARg agonist rosiglitazone in solution in acetone) once a day for 8 days. Two hours after the final treatment, the animals are sacrificed by euthanasia and the skin on the back is removed. After incubation in dispase, the epidermis carrying the sebaceous glands is detached from the dermis (epidermal split). After grinding of the samples, the mRNA is prepared using Qiagen columns, in accordance with the supplier's instructions. The material thus prepared is subjected to large-scale transcriptome analysis on an Affymetrix platform. The data are subsequently standardized and, after statistical analysis, the results produced are expressed in arbitrary expression units (see below) accompanied, for each piece of data, by a statistical value for presence of the transcript (presence=1; absence=0).

Take `CN(CCOc1ccc(CC2SC(=O)NC2=O)cc1)c1ccccn1` (stereo not shown) [A, 5-{4-[2-(methylpyridin-2-ylamino)ethoxy]-benzyl}thiazolidine-2,4-dione]: in the test with MGLL, the “MGLL relative induction, 0 hours” value is 1; the “MGLL relative induction, 8 hours” value is listed as 2.37; the “MGLL relative induction, 24 hours” value was found to be 5.06; the “MGLL relative induction, 48 hours” value came out at 3.13. Also, in the test on MGLL, the “MGLL relative induction, 96 hours” value was 5.76.
On to `CCCCCCCNC(=O)N(C)c1cccc(-c2ccc(C[C@H](OCC)C(=O)O)cc2)n1` [C, (S)-2-ethoxy-3-{4-[6-(3-heptyl-1-methyl-ureido)pyridin-2-yl)phenyl}propionic acid], for which, in the test with MGLL, the “MGLL relative induction, 0 hours” value is recorded as 1; the “MGLL relative induction, 8 hours” value is 5.01; the “MGLL relative induction, 24 hours” value worked out at 3.90; the “MGLL relative induction, 48 hours” value is listed as 3.88. The “MGLL relative induction, 96 hours” value with MGLL was 3.86.
As to `CN(CCOc1ccc(CC2SC(=O)NC2=O)cc1)c1ccccn1` (stereo not shown) [rosiglitazone], the “Expression after treatment with 1% rosiglitazone” value in test [1] is 576 arbitrary expression units.
As to “(2-methoxyethoxymethoxy)naphthalene-2-carboxylic acid [4′-(2,4-dioxothiazolidin-5-ylmethyl)biphenyl-3-ylmethyl]methylamide”, in the test on MGLL, the “MGLL relative induction, 0 hours” value is listed as 1; the “MGLL relative induction, 8 hours” value is on record as 1.17; the “MGLL relative induction, 24 hours” value was found to be 2.21; the “MGLL relative induction, 48 hours” value was 3.12. For the same compound, in the test with MGLL, the “MGLL relative induction, 96 hours” value was 1.61.

The values above are taken from patent US20110262450A1, “MODULATORS OF MONOGLYCERIDE LIPASE IN THE TREATMENT OF ACNE, OF SEBORRHOEIC DERMATITIS OR OF HYPERSEBORRHOEA” (priority 2008, published 2011).
